Results taken from PubChem BioAssay (NCI).
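Five concentrations, 48 hours, 96-well plates. GI50: concentration for 50% inhibition of growth. Definition used: TGI = concentration required for complete inhibition of growth.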

Assays:
Experiment in all cases: growth of human tumour cells (NCI), 48 h
786-0 renal = tested on: 786-0 renal
A498 renal = tested on: A498 renal
A549 NSCLC = tested on: A549 NSCLC
ACHN renal = tested on: ACHN renal
BT-549 breast = tested on: BT-549 breast
CAKI-1 renal = tested on: CAKI-1 renal
CCRF-CEM leukemia = tested on: CCRF-CEM leukemia
COLO 205 colon = tested on: COLO 205 colon
DU-145 prostate = tested on: DU-145 prostate
EKVX NSCLC = tested on: EKVX NSCLC
HCC-2998 colon = tested on: HCC-2998 colon
HCT-116 colon = tested on: HCT-116 colon
HCT-15 colon = tested on: HCT-15 colon
HL-60(TB) leukemia = tested on: HL-60(TB) leukemia
HOP-62 NSCLC = tested on: HOP-62 NSCLC
HOP-92 NSCLC = tested on: HOP-92 NSCLC
HS 578T breast = tested on: HS 578T breast
HT29 colon = tested on: HT29 colon
IGROV1 ovarian = tested on: IGROV1 ovarian
KM12 colon = tested on: KM12 colon
M14 melanoma = tested on: M14 melanoma
MALME-3M melanoma = tested on: MALME-3M melanoma
MCF7 breast = tested on: MCF7 breast
MDA-MB-231 breast = tested on: MDA-MB-231 breast
MDA-MB-435 = tested on: MDA-MB-435
MOLT-4 leukemia = tested on: MOLT-4 leukemia
NCI-H226 lung = tested on: NCI-H226 lung
NCI-H23 lung = tested on: NCI-H23 lung
NCI-H460 lung = tested on: NCI-H460 lung
NCI-H522 lung = tested on: NCI-H522 lung
NCI/ADR-RES ovarian = tested on: NCI/ADR-RES ovarian
OVCAR-3 ovarian = tested on: OVCAR-3 ovarian
OVCAR-4 ovarian = tested on: OVCAR-4 ovarian
OVCAR-5 ovarian = tested on: OVCAR-5 ovarian
OVCAR-8 ovarian = tested on: OVCAR-8 ovarian
PC-3 prostate = tested on: PC-3 prostate
RPMI-8226 leukemia = tested on: RPMI-8226 leukemia
RXF 393 renal = tested on: RXF 393 renal
SF-268 CNS = tested on: SF-268 CNS
SF-295 CNS = tested on: SF-295 CNS
SF-539 CNS = tested on: SF-539 CNS
SK-MEL-2 melanoma = tested on: SK-MEL-2 melanoma
SK-MEL-28 melanoma = tested on: SK-MEL-28 melanoma
SK-MEL-5 melanoma = tested on: SK-MEL-5 melanoma
SK-OV-3 ovarian = tested on: SK-OV-3 ovarian
SN12C renal = tested on: SN12C renal
SNB-19 CNS = tested on: SNB-19 CNS
SNB-75 CNS = tested on: SNB-75 CNS
SR leukemia = tested on: SR leukemia
SW-620 colon = tested on: SW-620 colon
T-47D breast = tested on: T-47D breast
TK-10 renal = tested on: TK-10 renal
U251 CNS = tested on: U251 CNS
UACC-257 melanoma = tested on: UACC-257 melanoma
UACC-62 melanoma = tested on: UACC-62 melanoma
UO-31 renal = tested on: UO-31 renal

Q: Which results are given for `O=S(=O)(NCCNc1cc(-c2cn(-c3ccccc3)nc2-c2cccc(O)c2)ccn1)c1ccc(F)cc1`?
A: GI50 (786-0 renal): 2.49 µM; TGI (786-0 renal): 14.3 µM; GI50 (A498 renal): 2.69 µM; TGI (A498 renal): 9.26 µM; GI50 (A549 NSCLC): 3.43 µM; TGI (A549 NSCLC): 12.1 µM; GI50 (ACHN renal): 2.32 µM; TGI (ACHN renal): 7.34 µM; GI50 (BT-549 breast): 2.03 µM; TGI (BT-549 breast): 7.68 µM; GI50 (CAKI-1 renal): 3.89 µM; TGI (CAKI-1 renal): > 100 µM; GI50 (CCRF-CEM leukemia): 3.28 µM; TGI (CCRF-CEM leukemia): 17.3 µM; GI50 (COLO 205 colon): 1.91 µM; TGI (COLO 205 colon): 4.34 µM; GI50 (DU-145 prostate): 3.35 µM; TGI (DU-145 prostate): 16.8 µM; GI50 (EKVX NSCLC): 2.59 µM; TGI (EKVX NSCLC): 20.3 µM; GI50 (HCC-2998 colon): 1.98 µM; TGI (HCC-2998 colon): 4.19 µM; GI50 (HCT-116 colon): 2.86 µM; TGI (HCT-116 colon): 10.4 µM; GI50 (HCT-15 colon): 1.8 µM; TGI (HCT-15 colon): 5.75 µM; GI50 (HL-60(TB) leukemia): 2.43 µM; TGI (HL-60(TB) leukemia): 6.22 µM; GI50 (HOP-62 NSCLC): 1.98 µM; TGI (HOP-62 NSCLC): 5.44 µM; GI50 (HOP-92 NSCLC): 2.03 µM; TGI (HOP-92 NSCLC): 8.48 µM; GI50 (HS 578T breast): 2.94 µM; TGI (HS 578T breast): > 100 µM; GI50 (HT29 colon): 1.99 µM; TGI (HT29 colon): 4.79 µM; GI50 (IGROV1 ovarian): 3.21 µM; TGI (IGROV1 ovarian): 19.8 µM; GI50 (KM12 colon): 2.34 µM; TGI (KM12 colon): 8.26 µM; GI50 (M14 melanoma): 2.27 µM; TGI (M14 melanoma): 6.41 µM; GI50 (MALME-3M melanoma): 1.73 µM; TGI (MALME-3M melanoma): 3.88 µM; GI50 (MCF7 breast): 2.19 µM; TGI (MCF7 breast): 6.66 µM; GI50 (MDA-MB-231 breast): 1.88 µM; TGI (MDA-MB-231 breast): 4.7 µM; GI50 (MDA-MB-435): 2.3 µM; TGI (MDA-MB-435): 7.2 µM; GI50 (MOLT-4 leukemia): 2.23 µM; TGI (MOLT-4 leukemia): 5.46 µM; GI50 (NCI-H226 lung): 3.06 µM; TGI (NCI-H226 lung): 13.7 µM; GI50 (NCI-H23 lung): 2.66 µM; TGI (NCI-H23 lung): 10.8 µM; GI50 (NCI-H460 lung): 3.12 µM; TGI (NCI-H460 lung): 9.12 µM; GI50 (NCI-H522 lung): 1.49 µM; TGI (NCI-H522 lung): 3.79 µM; GI50 (NCI/ADR-RES ovarian): 2.69 µM; GI50 (OVCAR-3 ovarian): 1.98 µM; TGI (OVCAR-3 ovarian): 4.59 µM; GI50 (OVCAR-4 ovarian): 3.05 µM; TGI (OVCAR-4 ovarian): > 100 µM; GI50 (OVCAR-5 ovarian): 1.93 µM; TGI (OVCAR-5 ovarian): 5.69 µM; GI50 (OVCAR-8 ovarian): 3.07 µM; TGI (OVCAR-8 ovarian): 14.1 µM; GI50 (PC-3 prostate): 2.29 µM; TGI (PC-3 prostate): 10.3 µM; GI50 (RPMI-8226 leukemia): 2.23 µM; TGI (RPMI-8226 leukemia): 6.12 µM; GI50 (RXF 393 renal): 2.09 µM; TGI (RXF 393 renal): 7.54 µM; GI50 (SF-268 CNS): 2.42 µM; TGI (SF-268 CNS): 8.93 µM; GI50 (SF-295 CNS): 1.75 µM; TGI (SF-295 CNS): 3.9 µM; GI50 (SF-539 CNS): 1.71 µM; TGI (SF-539 CNS): 3.95 µM; GI50 (SK-MEL-2 melanoma): 1.92 µM; TGI (SK-MEL-2 melanoma): 4.32 µM; GI50 (SK-MEL-28 melanoma): 2.03 µM; TGI (SK-MEL-28 melanoma): 5.39 µM; GI50 (SK-MEL-5 melanoma): 1.73 µM; TGI (SK-MEL-5 melanoma): 3.22 µM; GI50 (SK-OV-3 ovarian): 2.85 µM; TGI (SK-OV-3 ovarian): 12.3 µM; GI50 (SN12C renal): 3.69 µM; TGI (SN12C renal): 35.1 µM; GI50 (SNB-19 CNS): 3.72 µM; TGI (SNB-19 CNS): 31.7 µM; GI50 (SNB-75 CNS): 2.83 µM; TGI (SNB-75 CNS): 16.5 µM; GI50 (SR leukemia): 1.6 µM; TGI (SR leukemia): 4.88 µM; GI50 (SW-620 colon): 3.52 µM; TGI (SW-620 colon): 13.6 µM; GI50 (T-47D breast): 2.01 µM; TGI (T-47D breast): 6.86 µM; GI50 (TK-10 renal): 3.58 µM; TGI (TK-10 renal): 9.84 µM; GI50 (U251 CNS): 2.62 µM; TGI (U251 CNS): 7.85 µM; GI50 (UACC-257 melanoma): 2.85 µM; TGI (UACC-257 melanoma): 7.14 µM; GI50 (UACC-62 melanoma): 1.99 µM; TGI (UACC-62 melanoma): 4.73 µM; GI50 (UO-31 renal): 2.31 µM; TGI (UO-31 renal): 7.88 µM
